Calls of active or inactive are those of the source. For most assays here, no stated cut-off is given here; in the data, actives have a measured AC50 and inactives only a lower limit.
Legend:
cells = conditions: HEK293
[1] = endogenous miR-122 level reduction, dose response, orthogonal assay for miR-122 inhibitor project, cell-based, Huh7, RT-qPCR, dry powder (AID 687041); assay type: functional
[2] = cytotoxicity dependent on PAX8, dose response, cell-based, plate reader, dry powder (AID 743049); assay type: functional
Paired box protein Pax-8 = Paired box protein Pax-8 (Homo sapiens, UniProt Q06710); experiment: inhibitors of PAX8-driven TPO luciferase reporter, dose response, RMG-I cells, cherry-pick (AID 687027); assay type: functional, cell-based;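 further: luciferase reporter driven by Pax8 target thyroperoxidase promoter measured by SteadyGlo luminescence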
[3] = cytotoxicity in COV434 cells, dose response, cytotoxicity control for PAX8 inhibitor project, cell-based, plate reader, dry powder, SA7 (AID 743145); assay type: functional
[4] = PAX5 activity inhibitors, dose response, selectivity assay for PAX8 inhibitor project, cell-based, plate reader, dry powder samples (AID 743047); assay type: functional;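 further: HEK293 cells carrying a Pax5 driven CD19 promoter luciferase reporter; potency of inhibitors that lower reporter luminescence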
[5] = PAX2 cell-based inhibition, dose response, selectivity assay for PAX8 inhibitor project, plate reader, dry powder samples (AID 743048); assay type: functional;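 further: HEK293 cells carrying a WT1 promoter luciferase reporter driven by expressed Pax2; potency is for inhibition of Pax2 driven reporter signal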
[6] = target: NAD-dependent protein deacylase sirtuin-5, mitochondrial (Homo sapiens, UniProt Q9NXA8); experiment: SIRT5 desuccinylase inhibitors, dose response, biochemical, fluorescence imaging, cherry-pick, set 5 (AID 720591);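 further: desuccinylation of succinyl peptide AMC substrate read as fluorescence after trypsin release; potency of inhibitors that lower fluorescence and may act on trypsin instead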
[7] = target: E3 ubiquitin-protein ligase UHRF1 (Homo sapiens, UniProt Q96T88); experiment: Counterscreen for inhibitors of 5-meCpG-binding domain protein 2 (MBD2): TRFRET-based biochemical high throughput dose response assay to identify inhibitors of binding of ubiquitin-like with PHD and ring finger domains 1 (UHRF1) to methylated oligonucleotide.
[8] = inhibitors of fibronectin matrix deposition, dose response, AH1F cells, Alexa488-FN fluorescence, cherry-picks (AID 1035475); assay type: functional, cell-based
[9] = HepG2 cell cytotoxicity, dose response, cytotoxicity control, cherry-picks, set 5 (AID 1053118); assay type: functional, cell-based
[10] = P. falciparum Dd2 growth inhibitors, dose response, SYBR Green, cherry-picked samples (AID 1159567); assay type: functional, cell-based
[11] = A549 cell cytotoxicity, dose response, cytotoxicity control, cherry-picks, 26 µM top dose (AID 1053119); assay type: functional, cell-based
[12] = HepG2 cell cytotoxicity, dose response, cytotoxicity control, cherry-picked samples (AID 1159577); assay type: functional, cell-based
[13] = HEK293 cell cytotoxicity, dose response, cytotoxicity control, cherry-picks, set 5 (AID 1053117); assay type: functional, cell-based
[14] = target: Potassium channel subfamily K member 3 (Homo sapiens, UniProt O14649); experiment: TASK1 (KCNK3) potassium channel inhibitors, SAR follow-up, CHO cells, FluxOR thallium flux (AID 652212); assay type: functional
[15] = target: C-X-C chemokine receptor type 4 (Homo sapiens, UniProt P61073); experiment: SAR analysis of small molecule antagonists of the CXCR6 receptor using a CXCR4 receptor luminescent beta-arrestin counterscreen.; assay type: functional
[16] = target: C-C chemokine receptor type 6 (Homo sapiens, UniProt P51684); experiment: SAR analysis of small molecule antagonists of the CXCR6 receptor using a CCR6 receptor luminescent beta-arrestin counterscreen.; assay type: functional
Chain of C-C chemokine receptor type 6 (P51684 whole entry): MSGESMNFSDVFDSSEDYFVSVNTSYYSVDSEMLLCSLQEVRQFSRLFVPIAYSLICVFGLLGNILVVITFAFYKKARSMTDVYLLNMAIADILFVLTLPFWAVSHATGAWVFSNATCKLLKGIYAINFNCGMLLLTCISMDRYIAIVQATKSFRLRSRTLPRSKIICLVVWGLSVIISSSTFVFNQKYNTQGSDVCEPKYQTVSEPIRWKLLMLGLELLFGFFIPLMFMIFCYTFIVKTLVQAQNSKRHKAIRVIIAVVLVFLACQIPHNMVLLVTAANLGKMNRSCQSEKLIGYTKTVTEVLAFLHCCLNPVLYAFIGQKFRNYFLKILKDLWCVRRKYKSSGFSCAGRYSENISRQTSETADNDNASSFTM

Chain of Potassium channel subfamily K member 3 (O14649 whole entry): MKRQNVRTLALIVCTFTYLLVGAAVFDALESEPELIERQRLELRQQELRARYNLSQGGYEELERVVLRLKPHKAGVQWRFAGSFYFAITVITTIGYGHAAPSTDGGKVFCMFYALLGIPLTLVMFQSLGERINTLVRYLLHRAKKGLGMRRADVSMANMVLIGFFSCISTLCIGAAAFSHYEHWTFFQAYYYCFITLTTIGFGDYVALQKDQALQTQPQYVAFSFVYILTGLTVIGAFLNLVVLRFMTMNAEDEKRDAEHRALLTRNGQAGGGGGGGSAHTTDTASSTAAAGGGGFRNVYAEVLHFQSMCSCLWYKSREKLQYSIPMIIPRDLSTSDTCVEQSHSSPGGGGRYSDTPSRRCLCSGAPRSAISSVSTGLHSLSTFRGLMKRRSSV
Chain of NAD-dependent protein deacylase sirtuin-5, mitochondrial (Q9NXA8 whole entry, the tested form may be a part): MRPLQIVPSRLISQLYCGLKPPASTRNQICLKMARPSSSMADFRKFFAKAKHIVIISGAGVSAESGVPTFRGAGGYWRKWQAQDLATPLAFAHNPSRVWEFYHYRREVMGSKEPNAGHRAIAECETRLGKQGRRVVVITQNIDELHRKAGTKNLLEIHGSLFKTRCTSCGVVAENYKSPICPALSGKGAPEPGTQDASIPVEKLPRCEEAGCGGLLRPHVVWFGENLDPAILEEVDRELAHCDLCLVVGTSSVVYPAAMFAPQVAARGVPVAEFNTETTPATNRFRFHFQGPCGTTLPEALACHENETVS
Chain of Paired box protein Pax-8 (Q06710 whole entry): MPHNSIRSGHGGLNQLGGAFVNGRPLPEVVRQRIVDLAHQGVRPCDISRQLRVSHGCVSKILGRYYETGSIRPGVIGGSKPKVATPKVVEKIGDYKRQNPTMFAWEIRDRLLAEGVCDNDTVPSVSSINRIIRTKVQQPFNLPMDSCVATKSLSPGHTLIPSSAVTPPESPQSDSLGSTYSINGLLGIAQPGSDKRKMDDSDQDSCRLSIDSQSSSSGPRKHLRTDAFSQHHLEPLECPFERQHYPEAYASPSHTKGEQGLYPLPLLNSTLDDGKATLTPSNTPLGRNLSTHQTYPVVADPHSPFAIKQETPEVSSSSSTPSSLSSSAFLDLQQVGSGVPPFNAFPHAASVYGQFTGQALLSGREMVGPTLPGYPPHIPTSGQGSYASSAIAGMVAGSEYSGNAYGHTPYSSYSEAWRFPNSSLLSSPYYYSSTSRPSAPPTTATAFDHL
Chain of E3 ubiquitin-protein ligase UHRF1 (Q96T88 whole entry, the tested form may be a part): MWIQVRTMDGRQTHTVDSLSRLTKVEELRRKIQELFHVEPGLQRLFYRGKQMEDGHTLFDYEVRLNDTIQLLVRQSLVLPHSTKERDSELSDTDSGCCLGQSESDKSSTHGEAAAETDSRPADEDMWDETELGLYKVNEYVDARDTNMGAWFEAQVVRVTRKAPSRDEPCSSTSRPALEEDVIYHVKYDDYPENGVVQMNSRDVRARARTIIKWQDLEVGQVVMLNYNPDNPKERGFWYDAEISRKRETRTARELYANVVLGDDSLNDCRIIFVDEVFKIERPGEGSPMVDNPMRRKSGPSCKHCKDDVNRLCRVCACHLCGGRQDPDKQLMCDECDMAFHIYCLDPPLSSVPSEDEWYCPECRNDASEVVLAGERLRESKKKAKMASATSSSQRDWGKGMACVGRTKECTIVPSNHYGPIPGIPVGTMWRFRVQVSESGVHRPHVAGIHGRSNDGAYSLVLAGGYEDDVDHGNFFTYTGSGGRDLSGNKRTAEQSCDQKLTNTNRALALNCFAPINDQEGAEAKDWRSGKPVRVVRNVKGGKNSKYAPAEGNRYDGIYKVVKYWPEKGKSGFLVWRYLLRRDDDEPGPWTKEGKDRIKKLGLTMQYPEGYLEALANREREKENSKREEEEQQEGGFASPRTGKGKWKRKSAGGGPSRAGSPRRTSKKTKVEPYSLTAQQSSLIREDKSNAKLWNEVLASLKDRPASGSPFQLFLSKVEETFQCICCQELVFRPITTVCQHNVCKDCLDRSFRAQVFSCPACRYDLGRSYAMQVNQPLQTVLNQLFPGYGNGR
Chain of C-X-C chemokine receptor type 4 (P61073 whole entry): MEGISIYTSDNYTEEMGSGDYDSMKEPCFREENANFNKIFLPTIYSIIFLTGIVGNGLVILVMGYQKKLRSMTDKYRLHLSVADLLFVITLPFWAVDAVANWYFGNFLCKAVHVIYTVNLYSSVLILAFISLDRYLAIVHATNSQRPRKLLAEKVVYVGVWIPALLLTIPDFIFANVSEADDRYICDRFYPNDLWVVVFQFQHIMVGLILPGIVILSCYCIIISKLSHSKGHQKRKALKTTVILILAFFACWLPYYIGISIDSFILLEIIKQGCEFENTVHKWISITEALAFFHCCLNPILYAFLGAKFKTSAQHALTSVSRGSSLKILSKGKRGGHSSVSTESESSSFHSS

**Q.** Which AC50 (cells) does the source give for `CC(=O)Oc1ccc(C(=O)Nc2cc(C)on2)cc1` here?
**A.** > 52 µM (inactive)

**Q.** Which AC50 [1] does the source give for `S=C(Nc1ccc(Cl)cc1Cl)NC1CCCCC1` here?
**A.** 2.25 µM (active)

**Q.** Which results are given for `C[C@@H]1CN([C@H](C)CO)C(=O)CCCn2nncc2CO[C@H]1CN(C)Cc1ccc(Oc2ccccc2)cc1`?
**A.** AC50 [2]: > 70 µM (inactive); AC50 (Paired box protein Pax-8): 22.1 µM (active); AC50 [3]: 0.24 nM (active); AC50 [4]: > 70 µM (inactive); AC50 [5]: 47.9 µM (active)

**Q.** For `CCOC(=O)C1=C[C@@H](c2ccccc2)N(S(=O)(=O)c2ccc(C)cc2)[C@H]1c1ccccc1Cl`, which AC50 [6] is on record?
**A.** > 30 µM (inactive)

**Q.** With `CCCCn1nnnc1C1(C)CCC(=O)N1CCCn1ccnc1` (stereo not drawn) as the compound, how does the IC50 [7] read?
**A.** > 43.7 µM (inactive)

**Q.** What does the source list for `CO[C@@H]1CN(C)C(=O)c2ccc(NC(=O)c3ccc(-c4ccccc4)cc3)cc2OC[C@@H](C)NC[C@H]1C`?
**A.** AC50 [8]: 19.6 µM (active); AC50 [9]: 10.8 µM (active); AC50 [10]: 8.67 µM (active); AC50 [11]: 12.3 µM (active); AC50 [12]: 10.3 µM (active); AC50 [13]: 12.1 µM (active)

**Q.** With `Cc1cccc(C(=O)Nc2cccc(C(=O)Nc3ccccc3)c2)c1` as the compound, how does the IC50 [14] read?
**A.** 1.14 µM (active)

**Q.** Which IC50 [15] does the source give for `COc1cc(C(=O)NC2CC3CCCC(C2)N3CC(=O)Nc2ccc(Cl)cc2)cc(OC)c1OC` (stereo not drawn) here?
**A.** > 79 µM (inactive)

**Q.** And the IC50 [16]?
**A.** > 79 µM (inactive)

From ChEMBL document CHEMBL1201862, “PubChem BioAssay data set” (2004)
